Data taken from paper PMC3461104 (Journal of medicinal chemistry, 2012).

Legend:
human TLR8 = biological target: T1, human TLR8 (Homo sapiens, UniProt Q9NR97); assay: Human TLR8-specific HEK-Blue reporter gene assay; type: cell-based; settings: human TLR8-transfected HEK293 cells, NF-κB reporter
T1 sequence (Q9NR97 27-1041): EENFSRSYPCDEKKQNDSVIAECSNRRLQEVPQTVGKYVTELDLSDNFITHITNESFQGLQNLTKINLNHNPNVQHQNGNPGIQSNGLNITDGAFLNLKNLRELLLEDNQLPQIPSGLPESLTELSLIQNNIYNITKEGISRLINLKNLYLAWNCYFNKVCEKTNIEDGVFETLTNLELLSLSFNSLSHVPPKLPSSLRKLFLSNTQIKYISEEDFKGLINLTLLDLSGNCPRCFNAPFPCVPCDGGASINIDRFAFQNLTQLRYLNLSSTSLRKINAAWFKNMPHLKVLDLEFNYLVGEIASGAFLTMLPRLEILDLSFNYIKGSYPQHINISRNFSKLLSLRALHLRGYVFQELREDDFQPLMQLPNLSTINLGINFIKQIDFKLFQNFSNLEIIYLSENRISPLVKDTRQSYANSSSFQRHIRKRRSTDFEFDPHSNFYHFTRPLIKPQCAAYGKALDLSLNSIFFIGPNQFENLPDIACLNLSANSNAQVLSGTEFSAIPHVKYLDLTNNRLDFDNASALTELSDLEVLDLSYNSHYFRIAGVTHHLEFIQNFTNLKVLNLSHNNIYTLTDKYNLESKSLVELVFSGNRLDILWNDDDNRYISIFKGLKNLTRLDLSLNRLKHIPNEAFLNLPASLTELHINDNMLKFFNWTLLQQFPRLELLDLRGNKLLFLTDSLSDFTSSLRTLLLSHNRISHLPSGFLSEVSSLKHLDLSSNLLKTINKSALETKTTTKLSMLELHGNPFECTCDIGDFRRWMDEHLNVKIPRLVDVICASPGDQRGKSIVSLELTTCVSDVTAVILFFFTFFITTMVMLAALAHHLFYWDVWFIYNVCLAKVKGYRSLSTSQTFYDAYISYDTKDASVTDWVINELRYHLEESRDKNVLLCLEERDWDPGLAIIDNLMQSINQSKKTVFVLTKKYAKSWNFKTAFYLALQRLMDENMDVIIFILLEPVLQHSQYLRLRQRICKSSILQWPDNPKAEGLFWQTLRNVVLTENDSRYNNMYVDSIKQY

human PBMCs [1] = assay: Immunoassays for cytokines in human PBMCs; type: cell-based; settings: hPBMC stimulated 12 h with graded concentrations
human PBMCs [2] = assay: Transcriptomal profiling in human PBMCs; type: cell-based; settings: human PBMC, 10 μg/mL, two hours, fold change threshold 2.0
[3] = previously observed; cited from earlier work
NF-κB = settings: previously observed; cited from earlier work
[4] = cited from earlier work

Row | SMILES | dose-response profile (area-under the-curve) remark (human TLR8) | proinflammatory cytokine induction (human PBMCs [1]) | further results
1 | Cc1ncc(CO)c2c(Nc3ccccn3)c(NCc3ccccc3)oc12 [Compound 28, (2-(benzylamino)-7-methyl-3-(pyridin-2-ylamino)furo[2,3-c]pyridin-4-yl)methanol] | – | none of the furo[2,3-c]pyridines showed any proinflammatory cytokine induction | –
2 | CCCCNc1oc2c(C)ncc(CO)c2c1Nc1ccccn1 [Compound 37a, (2-(butylamino)-7-methyl-3-(pyridin-2-ylamino)furo[2,3-c]pyridin-4-yl)methanol] | – | none of the furo[2,3-c]pyridines showed any proinflammatory cytokine induction | –
3 | CCCCCNc1oc2c(C)ncc(CO)c2c1Nc1ccccn1 [Compound 37b, (7-methyl-2-(pentylamino)-3-(pyridin-2-ylamino)furo[2,3-c]pyridin-4-yl)methanol] | – | none of the furo[2,3-c]pyridines showed any proinflammatory cytokine induction | chemokine ligand gene expression (human PBMCs [2]): upregulated several chemokine ligand (both CXCL and CCL) genes; transcriptional signatures of inflammation (human PBMCs [2]): no transcriptional signatures of inflammation
4 | Cc1ncc(CO)c2c(Nc3ccccn3)c(NC[Si](C)(C)C)oc12 [Compound 37f, (7-methyl-3-(pyridin-2-ylamino)-2-(((trimethylsilyl)methyl)amino)furo[2,3-c]pyridin-4-yl)methanol] | – | none of the furo[2,3-c]pyridines showed any proinflammatory cytokine induction | chemokine ligand gene expression (human PBMCs [2]): upregulated several chemokine ligand (both CXCL and CCL) genes; transcriptional signatures of inflammation (human PBMCs [2]): no transcriptional signatures of inflammation
5 | CCCCCNc1oc2c(C)ncc(CO)c2c1Nc1cccc(F)c1 [Compound 38b, (3-((3-fluorophenyl)amino)-7-methyl-2-(pentylamino)furo[2,3-c]pyridin-4-yl) methanol] | Low AUC | – | –
6 | Cc1ncc(CO)c2c(Nc3ccccn3)c(NCCC(=O)OC(C)(C)C)oc12 [Compound 37i, tert-butyl 3-((4-(hydroxymethyl)-7-methyl-3-(pyridin-2-ylamino)furo[2,3-c]pyridin-2-yl)amino)propanoate] | Low AUC | – | –
7 | Clc1ccc2c(NCCCCNc3ccnc4cc(Cl)ccc34)ccnc2c1 [Compound 41, 7-chloro-N-(4-(7-chloroquinolin-4-ylamino)butyl) quinolin-4-amine] | – | – | proinflammatory cytokine induction [3]: unaccompanied by any proinflammatory cytokine induction; NF-κB transactivation (NF-κB): potent NF-κB transactivation; adjuvantic activity [4]: potent adjuvant

Now from value to compound, other results behind:

Row | dose-response profile (area-under the-curve) remark (human TLR8) | SMILES | proinflammatory cytokine induction (human PBMCs [1]) | further results
8 | Low AUC | CCCC(C)Nc1oc2c(C)ncc(CO)c2c1Nc1ccccn1 (stereo not drawn) [Compound 37d, (7-methyl-2-(pentan-2-ylamino)-3-(pyridin-2-ylamino)furo[2,3-c]pyridin-4-yl)methanol] | – | –
9 | Very low AUC | Cc1ncc(CO)c2c(Nc3ccccn3)c(N[C@@H](C)c3ccccc3)oc12 [Compound 37m, (S)-(7-methyl-2-((1-phenylethyl)amino)-3-(pyridin-2-ylamino)furo[2,3-c]pyridin-4-yl)methanol] | – | –
10 | Low AUC | CCCCCNc1oc2c(C)ncc(CO)c2c1Nc1ccccc1 [Compound 38a, (7-methyl-2-(pentylamino)-3-(phenylamino)furo[2,3-c]pyridin-4-yl)methanol] | – | –
11 | Very low AUC | Cc1ncc(CO)c2c(Nc3ccccc3)c(NCc3ccccc3)oc12 [Compound 36, (2-(benzylamino)-7-methyl-3-(phenylamino)furo[2,3-c]pyridin-4-yl)methanol] | – | –
12 | Low AUC | CCCCCNc1oc2c(C)ncc(CO)c2c1Nc1cccc([N+](=O)[O-])c1 [Compound 38c, (7-methyl-3-((3-nitrophenyl)amino)-2-(pentylamino)furo[2,3-c]pyridin-4-yl)methanol] | – | –
